# Assay: recombinant UMI read abundance after kanamycin selection (control-corrected) (log10(CPM+1)); higher = more efficient recombination; extreme values may be limits of the assay; sequences stand for … in AGTGCAGAGAAAATCGGCCAGTTTTCTCTGCCTGCAGTCCGCATGCCGTGGGACCCCTTGGGTTCTAACCTGTTGCCTAGATTTATGCAGCGGACTGCCTTTCTCCCAAAGTGATAAACCGG…AGGTTGGTTTCACT; site = the 11-nt donor
# In short: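 Sequenced counts of recombinant UMIs were turned into CPM, averaged across replicates and scaled with control-derived factors. The reported figure is log10(CPM+1). Those UMIs, each 12 nt long, tagged donor and donor-binding-loop pairs on a plasmid with a promoterless kanamycin gene, screened as a pool in Escherichia coli with IPTG (0.07 mM) plus kanamycin or without selection.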
# 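Note: IS621 bridge recombinase in Escherichia coli cells against a fixed T5 target plasmid.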
row,Sequence,recombinant UMI read abundance (log10)
1,CTGCTACCATGGACCGGTTTTCCCGGTAATCCGTATTTGCT (site CTGCTACCTAG),0
2,CTGCTACCATGGACCGGTTTTCCCGGTAATCCGTATTTGCT (site CTGCTACCTAT),0
3,CTGCTACCATGGACCGGTTTTCCCGGTAATCCGTATTTGCT (site CTGCTACCTCG),0.0163
4,CTGCTACCATGGACCGGTTTTCCCGGTAATCCGTATTTGCT (site CTGCTACCTGG),0
5,CTGCTACCATGGACCGGTTTTCCCGGTAATCCGTATTTGCT (site CTGCTACCTTG),0
6,CTGCTACCATGGACCGGTTTTCCCGGTAATCCGTATTTGCT (site CTGCTAGCTAG),0
7,CTGCTACCATGGACCGGTTTTCCCGGTAATCCGTATTTGCT (site CTGCTATCTAG),1.67
8,CTGCTACCATGGACCGGTTTTCCCGGTAATCCGTATTTGCT (site CTGCTCCCTAG),0.543
9,CTGCTACCATGGACCGGTTTTCCCGGTAATCCGTATTTGCT (site CTGCTGCCTAG),0.038
10,CTGCTACCATGGACCGGTTTTCCCGGTAATCCGTATTTGCT (site CTGCTTCCTAG),0
11,CTGCTACCATGGACCGGTTTTCCCGGTAATCCGTATTTGCT (site CTGGTACCTAG),0
12,CTGCTACCATGGACCGGTTTTCCCGGTAATCCGTATTTGCT (site CTGTTACCTAG),0
13,CTGCTACCATGGACCGGTTTTCCCGGTAATCCGTATTTGCT (site CTTCTACCTAG),0
14,CTGCTACCATGGACCGGTTTTCCCGGTAATCCGTATTTGCT (site GTGCTACCTAG),0
15,CTGCTACCATGGACCGGTTTTCCCGGTAATCCGTATTTGCT (site TTGCTACCTAG),0.00622
16,CTGCTCTCATGGACCGGTTTTCCCGGTAATCCGTATTTGTA (site CTACTCTCTTA),2.71
17,CTGCTCTCATGGACCGGTTTTCCCGGTAATCCGTATTTGTA (site CTCCTCTCTTA),0.876
18,CTGCTCTCATGGACCGGTTTTCCCGGTAATCCGTATTTGTA (site CTGCTCTCTTA),2.98
19,CTGCTCTCATGGACCGGTTTTCCCGGTAATCCGTATTTGTA (site CTTCTCTCTTA),1.06
20,CTGCTGACATGGACCGGTTTTCCCGGTAATCCGTATTTGAC (site CTGCTGACTGT),1.02
21,CTGCTTGCATGGACCGGTTTTCCCGGTAATCCGTATTTGAT (site CTGCTTGCTAT),2.21
22,CTGGAAACATGGACCGGTTTTCCCGGTAATCCGTATTTGCT (site CTGGAAACTAG),2.45
23,CTGGAAACATGGACCGGTTTTCCCGGTAATCCGTATTTGCT (site CTGGAAACTCG),0.534
24,CTGGAAACATGGACCGGTTTTCCCGGTAATCCGTATTTGCT (site CTGGAAACTGG),1.1
25,CTGGAAACATGGACCGGTTTTCCCGGTAATCCGTATTTGCT (site CTGGAAACTTG),0.49

row,Sequence,recombinant UMI read abundance (log10)
1,CTGGAAACATGGACCGGTTTTCCCGGTAATCCGTATTTGGA (site CTGGAAACTTA),0.993
2,CTGGAAACATGGACCGGTTTTCCCGGTAATCCGTATTTGGA (site CTGGAAACTTC),1.89
3,CTGGAAACATGGACCGGTTTTCCCGGTAATCCGTATTTGGA (site CTGGAAACTTG),0
4,CTGGAAACATGGACCGGTTTTCCCGGTAATCCGTATTTGGA (site CTGGAAACTTT),2.09
5,CTGGAGACATGGACCGGTTTTCCCGGTAATCCGTATTTGCA (site CTGGAAACTTG),2.32
6,CTGGAGACATGGACCGGTTTTCCCGGTAATCCGTATTTGCA (site CTGGACACTTG),2.12
7,CTGGAGACATGGACCGGTTTTCCCGGTAATCCGTATTTGCA (site CTGGAGACTTG),2.66
8,CTGGAGACATGGACCGGTTTTCCCGGTAATCCGTATTTGCA (site CTGGATACTTG),1.03
9,CTGGCAACATGGACCGGTTTTCCCGGTAATCCGTATTTGCA (site CTGGAAACTTG),0
10,CTGGCAACATGGACCGGTTTTCCCGGTAATCCGTATTTGCA (site CTGGCAACTTG),1.01
11,CTGGCAACATGGACCGGTTTTCCCGGTAATCCGTATTTGCA (site CTGGGAACTTG),0
12,CTGGCAACATGGACCGGTTTTCCCGGTAATCCGTATTTGCA (site CTGGTAACTTG),0
13,CTGGCACCATGGACCGGTTTTCCCGGTAATCCGTATTTGGC (site CTGGCACCTGC),0.523
14,CTGGCTGCATGGACCGGTTTTCCCGGTAATCCGTATTTGCG (site CTGGCTGCTCG),0.887
15,CTGGTACCATGGACCGGTTTTCCCGGTAATCCGTATTTGCT (site CTGATACCTAG),0
16,CTGGTACCATGGACCGGTTTTCCCGGTAATCCGTATTTGCT (site CTGCTACCTAG),0
17,CTGGTACCATGGACCGGTTTTCCCGGTAATCCGTATTTGCT (site CTGGTACCTAG),0
18,CTGGTACCATGGACCGGTTTTCCCGGTAATCCGTATTTGCT (site CTGTTACCTAG),0
19,CTGTAAACATGGACCGGTTTTCCCGGTAATCCGTATTTGCA (site CTGAAAACTTG),0
20,CTGTAAACATGGACCGGTTTTCCCGGTAATCCGTATTTGCA (site CTGCAAACTTG),0.604
21,CTGTAAACATGGACCGGTTTTCCCGGTAATCCGTATTTGCA (site CTGGAAACTTG),0
22,CTGTAAACATGGACCGGTTTTCCCGGTAATCCGTATTTGCA (site CTGTAAACTTG),1.29
23,CTGTACCCATGGACCGGTTTTCCCGGTAATCCGTATTTGTA (site CTGTACCCTTA),0.461
24,CTGTCTCCATGGACCGGTTTTCCCGGTAATCCGTATTTGTC (site CTGTCTCCTGA),0.331
25,CTTAGATCATGGACCGGTTTTCCCGGTAATCCGTATTTGGG (site CTTAGATCTCC),0.475

row,Sequence,recombinant UMI read abundance (log10)
1,CTTATAACATGGACCGGTTTTCCCGGTAATCCGTATTTGGA (site CTTATAACTTC),1
2,CTTCAATCATGGACCGGTTTTCCCGGTAATCCGTATTTGGT (site CTTCAATCTAC),1.96
3,CTTCCGACATGGACCGGTTTTCCCGGTAATCCGTATTTGAC (site CTTCCGACTGT),2.04
4,CTTCCTACATGGACCGGTTTTCCCGGTAATCCGTATTTGAG (site CTACCTACTCT),0.0179
5,CTTCCTACATGGACCGGTTTTCCCGGTAATCCGTATTTGAG (site CTCCCTACTCT),0.0168
6,CTTCCTACATGGACCGGTTTTCCCGGTAATCCGTATTTGAG (site CTGCCTACTCT),0.0339
7,CTTCCTACATGGACCGGTTTTCCCGGTAATCCGTATTTGAG (site CTTCCTACTCT),0.0166
8,CTTCGAGCATGGACCGGTTTTCCCGGTAATCCGTATTTGCA (site ATTCGAGCTTG),0.00677
9,CTTCGAGCATGGACCGGTTTTCCCGGTAATCCGTATTTGCA (site CTTCGAGCTTG),1.03
10,CTTCGAGCATGGACCGGTTTTCCCGGTAATCCGTATTTGCA (site GTTCGAGCTTG),0
11,CTTCGAGCATGGACCGGTTTTCCCGGTAATCCGTATTTGCA (site TTTCGAGCTTG),0
12,CTTCTACCATGGACCGGTTTTCCCGGTAATCCGTATTTGCT (site CTACTACCTAG),0
13,CTTCTACCATGGACCGGTTTTCCCGGTAATCCGTATTTGCT (site CTCCTACCTAG),0.00753
14,CTTCTACCATGGACCGGTTTTCCCGGTAATCCGTATTTGCT (site CTGCTACCTAG),0
15,CTTCTACCATGGACCGGTTTTCCCGGTAATCCGTATTTGCT (site CTTCTACCTAG),0.00449
16,CTTCTATCATGGACCGGTTTTCCCGGTAATCCGTATTTGGT (site CTTCTATCTAC),1.58
17,CTTCTCCCATGGACCGGTTTTCCCGGTAATCCGTATTTGTA (site CTTCTCACTTA),0.0088
18,CTTCTCCCATGGACCGGTTTTCCCGGTAATCCGTATTTGTA (site CTTCTCCCTTA),0.487
19,CTTCTCCCATGGACCGGTTTTCCCGGTAATCCGTATTTGTA (site CTTCTCGCTTA),0.0148
20,CTTCTCCCATGGACCGGTTTTCCCGGTAATCCGTATTTGTA (site CTTCTCTCTTA),0.837
21,CTTCTCGCATGGACCGGTTTTCCCGGTAATCCGTATTTGCG (site CTTCTCGCTCG),0.0091
22,CTTGCCCCATGGACCGGTTTTCCCGGTAATCCGTATTTGTA (site CTTGCCCCTTA),0.366
23,CTTGCTTCATGGACCGGTTTTCCCGGTAATCCGTATTTGAT (site CTTGCTTCTAT),0.0131
24,CTTGGAACATGGACCGGTTTTCCCGGTAATCCGTATTTGTT (site CATGGAACTAA),0.791
25,CTTGGAACATGGACCGGTTTTCCCGGTAATCCGTATTTGTT (site CCTGGAACTAA),0.00748

# — the supplement of paper PMC11208160
